Where “and” joins values, the source holds several entries; their conditions need not be identical. Identical values can stand only once.
Test system: guinea pig ventricular myocytes
Assay: Action potential recording in ventricular myocytes with moxifloxacin-prolonged (LQT) action potentials
Assay type: cell-based
Set-up: actional potential duration (APD), Fig. 7h: unit not given here
Details: for actional potential duration (APD), Fig. 7h: Moxi-Group, individual cells
Method: Fig. 7 Effects of CP1 on IKs and action potentials in cardiomyocytes. a IKs currents in guinea pig ventricular myocytes in the absence and presence of 30 µM CP1 in the whole-cell patch-clamp configuration. Holding potential: −40 mV; testing potentials: −20 to +60 mV with 10-mV increment; returning potential: −20 mV. […] Guinea pig ventricular myocytes were first perfused with 10 µM CP1 and 10 µM chromanol. After APD reached steady state, 10 µM CP1 was constitutively perfused alone. Last, CP1 was washed out for near-full reversal of APD shortening. g Effects of 0.2 µM CP1 on LQT action potentials. To mimic the LQT, 100 µM moxifloxacin was applied 2 h before the treatment of CP1. h Change of action potential duration after application of different [CP1]s (n = 5–7). Tukey–Kramer ANOVA test was used to compare control cells in different CP1 concentration, # is significant at P < 0.05. Unpaired two-tailed Student t tests were used to compare control and moxifloxacin cells at different CP1 concentration: * is significant at P < 0.05.
In ventricular myocytes, the duration and the morphology of action potentials are determined by various ion channels. Mutations in many of these channels and drugs that modify channel functions, such as an increase in inward Na^+ currents or decrease in outward K^+ currents, may lead to a prolonged action potential duration, which results in an inherited or acquired long QT syndrome that predisposes afflicted patients to cardiac arrhythmia. An enhancement of the outward IKs current may be able to counter these mutations or drug effects, and restore the action potential duration to more normal values. […] Next, we used an IKr blocker (Moxifloxacin, Moxi) to prolong action potentials and then applied various concentrations of CP1.
The use of guinea pigs was approved by the Stony Brook University Institutional Animal Care and Use Committee. Single ventricular myocytes were acutely enzymatically isolated from guinea pig heart as previously described. Guinea pigs, weighing 300–500 g, were sacrificed by peritoneal injection of sodium pentobarbitone (1 ml, 390 mg/ml). The isolated cells were stored in KB solution containing (in mM) 83 KCl, 30 K2HPO4, 5 MgSO4, 5 Na pyruvate, 5 β-OH-butyric acid, 20 creatine, 20 taurine, 10 glucose, and 0.5 EGTA, pH 7.2.
Action potentials were recorded with whole-cell patch-clamp recording techniques. Current-clamp configuration was used. Freshly isolated guinea pig cardiac myocytes were placed at 1 Hz with a stimulus of 180-pA amplitude and 10-mS duration. The APD was determined at 90% repolarization. Several minutes were allowed for the APD to reach steady state before data were collected. Typical Tyrode mimic AP Solution for action potential recording was used. The bath solution is composed of (in mM) 140 NaCl, 3 KCl, 1 MgCl2, 1.8 CaCl2, 10 HEPES, and 10 Glucose, pH 7.4. The pipette solution is composed of (in mM) 115 K-aspartic acid, 35 KOH, 3 MgCl2, 10 HEPES, 11 EGTA, 5 Glucose, and 3 MgATP, pH 7.4.

Q: `O=S(=O)([O-])Oc1c(-c2sc3c(ccc4cccc(Cl)c43)c2OS(=O)(=O)[O-])[nH]c2ccc(Br)cc12.[Na+].[Na+]` [CP1, DISODIUM 5-BROMO-2-[9-CHLORO-3-(SULFONATOOXY) NAPHTHO [1,2-B] THIEN-2-YL]-1H-INDOL-3-YL SULFATE] was tested. Which action potential duration (0.2 µM CP1, 100 µM moxifloxacin applied 2 h before) did it give?
A: Its action potential duration is “return the action potential duration back to normal”.

Q: And the action potential duration (0.6 and 6 µM CP1, moxifloxacin)?
A: The action potential duration was “reduced Moxifloxacin-induced action potential prolongation”.

Q: What about the “actional potential duration (APD), Fig. 7h” value (from here on “actional potential duration”) (0.2 µM CP1) of the same compound?
A: The value was 628 and 590 and 655 and 646 and 548 and 586.

Q: What about the “actional potential duration” value (0.6 µM CP1) of the same compound?
A: Its value is 549 and 521 and 579 and 388 and 495.

Q: What about the “actional potential duration” value (6 µM CP1) of the same compound?
A: The value was 393 and 380 and 396 and 407 and 426 and 406.

Reference: article PMC7367283, “A PIP2 substitute mediates voltage sensor-pore coupling in KCNQ activation” (Communications Biology, 2020)
